# Measured values as given in ChEMBL document CHEMBL1128489, “Novel hexakis(areneisonitrile)technetium(I) complexes as radioligands targeted to the multidrug resistance P-glycoprotein” (J Med Chem, 1995).
# Experiments:
# V79 [1] = test: Net accumulation of the [99mTc]Isonitrile complex was measured in 77A cell lines in the presence of Verapamil.; format: functional, cell-based
# V79 [2] = test: Verapamil index represents the ratio of net uptake in the presense of verapamil over control in 77A cell lines.; format: functional, cell-based
# [3] = Ratio of bioavailability in rat blood and rat brain.; format: functional, organism-based
# [4] = Ratio of bioavailability in rat heart and rat blood.; format: functional, organism-based
# [5] = Ratio of bioavailability in rat adrenal and rat blood.; format: functional, organism-based
# V79 [6] = test: Verapamil index represents the ratio of net uptake in the presense of verapamil over control in V79 cell lines.; format: functional, cell-based; conditions: Cricetulus griseus
# V79 [7] = test: Net accumulation of the [99mTc]Isonitrile complex was measured in V79 cell lines in the presence of Verapamil.; format: functional, cell-based; conditions: Cricetulus griseus
# Rattus norvegicus [8] = test: Biodistribution values represent the mean % id/organ for paired rats 30 min post intravenous injection complex in Spleen; format: ADME, organism-based; conditions: in vivo, 0.5 h
# Rattus norvegicus [9] = test: Biodistribution values represent the mean % id/organ for paired rats 30 min post intravenous injection complex in Adrenal; format: ADME, organism-based; conditions: in vivo, 0.5 h
# Rattus norvegicus [10] = test: Biodistribution values represent the mean % id/organ for paired rats 30 min post intravenous injection complex in Blood; format: ADME, organism-based; conditions: in vivo, 0.5 h
# Rattus norvegicus [11] = test: Biodistribution values represent the mean % id/organ for paired rats 30 min post intravenous injection complex in Bone; format: ADME, organism-based, Bone element; conditions: in vivo, 0.5 h
# Rattus norvegicus [12] = test: Biodistribution values represent the mean % id/organ for paired rats 30 min post intravenous injection complex in Brain; format: ADME, organism-based; conditions: in vivo, 0.5 h
# Rattus norvegicus [13] = test: Biodistribution values represent the mean % id/organ for paired rats 30 min post intravenous injection complex in Fat; format: ADME, organism-based; conditions: in vivo, 0.5 h
# Rattus norvegicus [14] = test: Biodistribution values represent the mean % id/organ for paired rats 30 min post intravenous injection complex in GI; format: ADME, organism-based; conditions: in vivo, 0.5 h
# Rattus norvegicus [15] = test: Biodistribution values represent the mean % id/organ for paired rats 30 min post intravenous injection complex in Heart; format: ADME, organism-based; conditions: in vivo, 0.5 h
# Rattus norvegicus [16] = test: Biodistribution values represent the mean % id/organ for paired rats 30 min post intravenous injection complex in Kidney; format: ADME, organism-based; conditions: in vivo, 0.5 h
# Rattus norvegicus [17] = test: Biodistribution values represent the mean % id/organ for paired rats 30 min post intravenous injection complex in Skin; format: ADME, organism-based; conditions: in vivo, 0.5 h
# Rattus norvegicus [18] = test: Biodistribution values represent the mean % id/organ for paired rats 30 min post intravenous injection complex in Liver; format: ADME, organism-based; conditions: in vivo, 0.5 h
# Rattus norvegicus [19] = test: Biodistribution values represent the mean % id/organ for paired rats 30 min post intravenous injection complex in Lungs; format: ADME, organism-based, Lung; conditions: in vivo, 0.5 h
# Rattus norvegicus [20] = test: Biodistribution values represent the mean % id/organ for paired rats 30 min post intravenous injection complex in Muscles; format: ADME, organism-based, Muscle tissue; conditions: in vivo, 0.5 h
Substance,Net accumulation (V79 [1]; Cricetulus griseus),Verapamil index (V79 [2]; Cricetulus griseus),Ratio [3],Ratio [4],Ratio [5],also measured
"Hexakis[3,5-Dimethoxybenzeneisonitrile]technetium Complex [listing 1 of 2 here]",15.3,1.84,7.5,1,1.7,–
"Hexakis[3,4,5-Trimethoxy-alpha-tolueneisonitrile]technetium Complex",57,0.81,6.7,5.5,24,–
"Hexakis[3,4-Dimethoxybenzeneisonitrile]technetium Complex [listing 1 of 2 here]",397,3.52,26,0.7,7.3,–
Hexakis[3-Acetamidobenzeneisonitrile]technetium Complex [listing 1 of 2 here],147,0.77,15,0.7,8.8,–
"Hexakis[3,4-Dimethoxy-alpha-tolueneisonitrile]technetium Complex",362,1.53,19,0.6,7.9,–
Hexakis[2-Methoxy-5-nitrobenzeneisonitrile]technetium Complex,–,–,38,0.5,0.9,Verapamil index (V79 [6]): 0.96; Net accumulation (V79 [7]): 58.3
Hexakis[4-Cyanobenzeneisonitrile]technetium Complex,161,1.61,31,0.3,1.2,–
"Hexakis[2-(3,4-Dimethoxyphenyl)ethaneisonitrile]technetium Complex",–,–,23,0.4,4.1,Net accumulation (V79 [1]): 146; Verapamil index (V79 [2]): 3.3
Hexakis[3-(hydroxymethyl)benzeneisonitrile]technetium Complex,–,–,27,0.7,6.2,Verapamil index (V79 [6]): 2.38; Net accumulation (V79 [7]): 257
"Hexakis[2-(3,4,5-Trimethoxyphenyl)ethaneisonitrile]technetium Complex",101,1.07,5,9,54,–
Hexakis[2-(4-Methoxyphenyl)ethaneisonitrile]technetium Complex,494,3.09,26,3.5,13,–
Hexakis[4-Acetylbenzeneisonitrile]technetium Complex,826,1.73,17,0.6,22,–
"Hexakis[3,4-(Methylenedioxy)-alpha-tolueneisonitrile]technetium Complex",–,–,36,0.6,6.9,Verapamil index (V79 [6]): 1.11; Net accumulation (V79 [7]): 287
Hexakis[4-Methoxy-alpha-tolueneisonitrile]technetium Complex [listing 1 of 2 here],–,–,–,–,–,ID/organ (Rattus norvegicus [8]): 2.45%; ID/organ (Rattus norvegicus [9]): 0.03%; ID/organ (Rattus norvegicus [10]): 4.56%; ID/organ (Rattus norvegicus [11]): 2.73%; ID/organ (Rattus norvegicus [12]): 0.02%; ID/organ (Rattus norvegicus [13]): 0.24%; ID/organ (Rattus norvegicus [14]): 3.31%; ID/organ (Rattus norvegicus [15]): 0.08%; ID/organ (Rattus norvegicus [16]): 0.45%; ID/organ (Rattus norvegicus [17]): 0.58%; ID/organ (Rattus norvegicus [18]): 85.6%; ID/organ (Rattus norvegicus [19]): 1.31%; ID/organ (Rattus norvegicus [20]): 1.92%
"Hexakis[3,4-Dimethoxybenzeneisonitrile]technetium Complex [listing 2 of 2 here]",–,–,–,–,–,ID/organ (Rattus norvegicus [8]): 4.5%; ID/organ (Rattus norvegicus [9]): 0.07%; ID/organ (Rattus norvegicus [10]): 3.92%; ID/organ (Rattus norvegicus [11]): 4.38%; ID/organ (Rattus norvegicus [12]): 0.02%; ID/organ (Rattus norvegicus [13]): 0.4%; ID/organ (Rattus norvegicus [14]): 2.44%; ID/organ (Rattus norvegicus [15]): 0.13%; ID/organ (Rattus norvegicus [16]): 0.61%; ID/organ (Rattus norvegicus [17]): 1.07%; ID/organ (Rattus norvegicus [18]): 87.7%; ID/organ (Rattus norvegicus [19]): 1.89%; ID/organ (Rattus norvegicus [20]): 4.67%
Hexakis[3-Acetamidobenzeneisonitrile]technetium Complex [listing 2 of 2 here],–,–,–,–,–,ID/organ (Rattus norvegicus [8]): 1.5%; ID/organ (Rattus norvegicus [9]): 0.02%; ID/organ (Rattus norvegicus [10]): 0.87%; ID/organ (Rattus norvegicus [11]): 3.48%; ID/organ (Rattus norvegicus [12]): 0.01%; ID/organ (Rattus norvegicus [13]): 0.03%; ID/organ (Rattus norvegicus [14]): 2.12%; ID/organ (Rattus norvegicus [15]): 0.03%; ID/organ (Rattus norvegicus [16]): 0.38%; ID/organ (Rattus norvegicus [17]): 0.17%; ID/organ (Rattus norvegicus [18]): 86.9%; ID/organ (Rattus norvegicus [19]): 1.45%; ID/organ (Rattus norvegicus [20]): 0.53%
"Hexakis[3,5-Dimethoxybenzeneisonitrile]technetium Complex [listing 2 of 2 here]",–,–,–,–,–,ID/organ (Rattus norvegicus [8]): 2.25%; ID/organ (Rattus norvegicus [9]): 0%; ID/organ (Rattus norvegicus [10]): 0.5%; ID/organ (Rattus norvegicus [11]): 1.53%; ID/organ (Rattus norvegicus [12]): 0.01%; ID/organ (Rattus norvegicus [13]): 0.11%; ID/organ (Rattus norvegicus [14]): 3.12%; ID/organ (Rattus norvegicus [15]): 0.03%; ID/organ (Rattus norvegicus [16]): 0.49%; ID/organ (Rattus norvegicus [17]): 0.26%; ID/organ (Rattus norvegicus [18]): 92.5%; ID/organ (Rattus norvegicus [19]): 1.83%; ID/organ (Rattus norvegicus [20]): 0.74%
Hexakis-(2-methoxyisobutylisonitrile)Technetium (99mTc-MIBI),102,32.9,0.7,120,158,Verapamil index (V79 [6]): 3.91; Net accumulation (V79 [7]): 70.4
Hexakis[5-Methoxy-2-methyl-4-nitrobenzeneisonitrile]technetium Complex [listing 1 of 2 here],–,–,28,0.4,1.8,Verapamil index (V79 [6]): 0.87; Net accumulation (V79 [7]): 31.7
Hexakis[4-Nitrobenzeneisonitrile]technetium Complex,29.1,1.15,39,0.3,0.6,–
Hexakis[4-Methoxy-alpha-tolueneisonitrile]technetium Complex [listing 2 of 2 here],359,2.6,30,0.3,2.5,–
"Hexakis[3,5-Dimethoxy-alpha-tolueneisonitrile]technetium Complex",315,2.19,28,0.4,3.1,–
Hexakis[3-Nitrobenzeneisonitrile]technetium Complex,–,–,31,0.4,0.6,Verapamil index (V79 [6]): 0.99; Net accumulation (V79 [7]): 14
"Hexakis[3,4-(Methylenedioxy)benzeneisonitrile]technetium Complex",93.9,1.87,9.3,0.4,14,–
Hexakis[5-Methoxy-2-methyl-4-nitrobenzeneisonitrile]technetium Complex [listing 2 of 2 here],–,–,–,–,–,ID/organ (Rattus norvegicus [8]): 3.05%; ID/organ (Rattus norvegicus [9]): 0.03%; ID/organ (Rattus norvegicus [10]): 6.88%; ID/organ (Rattus norvegicus [11]): 5.59%; ID/organ (Rattus norvegicus [12]): 0.03%; ID/organ (Rattus norvegicus [13]): 0.32%; ID/organ (Rattus norvegicus [14]): 3.96%; ID/organ (Rattus norvegicus [15]): 0.14%; ID/organ (Rattus norvegicus [16]): 1.13%; ID/organ (Rattus norvegicus [17]): 0.77%; ID/organ (Rattus norvegicus [18]): 71.9%; ID/organ (Rattus norvegicus [19]): 0.72%; ID/organ (Rattus norvegicus [20]): 1.28%
